Nine compounds from EP0848957A1, “Fas LIGAND SOLUBILIZATION INHIBITOR” (KANEBO LTD., priority 1995, dated 1997) can be followed below.

Where only a bound is given, the exact number is not on record here.

A word on the IC50: it is the concentration at which inhibition is half-maximal. A high value points to lower potency. As usually defined, the inhibition is the percentage by which the read-out fell short of the control.

Series [1] concerns hFas L/BHK-21 (BHK-21 cells in which human Fas L cDNA was transfected). Put plainly: Test for inhibition of Fas L solubilization (sFas L in culture supernatant by sandwich-ELISA). Type of series: cell-based. To be noted: for IC50: BHK-21, sFas L secretion inhibition at 5, 2.5, 1.25, 0.625 µM, probit method; for inhibition at 5 µM: Homo sapiens, BHK-21, 24 h, incubated 24 hours at 37°C, read-out: aFas L secretion inhibition rate (%). The procedure:
hFas L/BHK-21 (BHK-21 cells in which human Fas L cDNA was transfected)(3.5 x 10^5) was suspended in 1ml of RPMI 1640 culture medium containing 10% fetal bovine serum, and in 24 wells culture plate (Falcon 3047, Becton Dickenson Co., Ltd.) each test sample adjusted with RPMI 1640 containing 10% fetal bovine serum at the final concentration 5, 2.5, 1.25, and 0.625 µM was incubated under 5% carbon dioxide atmosphere at 37°C for 24 hours, to obtain a culture supernatant.
The concentration of sFas L in the supernatant thus obtained was quantitatively analyzed by the sandwich-ELISA method as shown below.
The concentration of anti Fas L antibody (NOK3)(see preparation 17) was adjusted to 10µg/ml with 0.05M sodium carbonate-sodium hydrogen carbonate buffer solution (pH 9.6), and each 50µl thereof was poured in each well of a 96-wells microplate (Immunolon 2, Dinatech Co., Ltd.) and left it overnight at 4°C to make the solid phase. Each well was washed twice with 300 µl of a washing solution consisting of a physiological saline solution adjusted at pH 7.4 with a phosphate buffer solution, containing 0.05% of Tween 20 (polyoxyethylene sorbitan monolaurate)(abbreviated as T-PBS), and then to it was added 300µl of PBS (pH 7.4) containing bovine serum albumin (abbreviated as BSA, Wako Chemical Co., Ltd), and it was left for 2 hours at 37°C to remove the supernatant.
Then, the culture supernatant (50µl) containing a test sample were added to each well, and incubated for one hour at room temperature. After incubation, each well was washed twice with 300µl of T-PBS (pH7.4).
The concentration of anti Fas L antibody (NOK1) labeled with biotin (see preparation 18) was adjusted to 5µg/ml by diluting with PBS (pH 7.4) containing 1% BSA, and 50µl thereof was added to the solution prepared above. The solution was reacted for one hour at room temperature, and washed twice with 300µl of T-PBS (pH 7.4).
And then, streptoavidin-peroxidase (Amasham Lab.) was diluted 1000 times with PBS (pH 7.4) containing 1% of BSA, and 50µl thereof was added to it. The solution was incubated for 30 minutes at room temparature and was washed twice with 300µ of T-PBS (pH 7.4).
Further, 100µl of 0.15M citric acid-sodium phosphate buffer solution (pH 5.0) containing hydrogen peroxide and o-phenylenediamine (former concentration:0.015 w/v%, latter concentration:0.2mg/ml) was added to each well and incubated for 10 minutes at room temperature.
After incubation, 50µl of 2 N sulfuric acid was added to each well to quench the reaction, and the absorbance at 490 nm was measured by Softmax (Molecular Device Co., Ltd.)
On the other hand, by measuring the absorbance of the sFas L solution of which the concentration was known, as a sample instead of the culture supernatant, the calibration curve was detected based on 4-logistic parameter analysis, and based on it the concentration (X) of sFas L in the culture supernatant was calculated.
As a control, by using the concentration (A) of sFas L in the culture supernatant in case that the test sample was not added, based on the concentration (X) of sFas L in the culture supernatant in case that the sample was added, sFas secretion inhibition rate (%) at 5µM was calculated by using the following formula sFas L secretion inhibition rate (%) = (1-X/A) x 100 [formula]

Series [2] has as its system GVHD induced mouse. The series can be described thus: Recovery test of GVHD induced mouse. It counts as in vivo, CBF1 mice. As to conditions: 2mg / mouse / day subcutaneously every day for 2 weeks. Here is the method:
CBF1 mice (F1 mice of BALB/c and C57BL/6) were injected with splenocytes (5x10^7) of C57BL/6 mouse, and a week later were again injected with splenocytes 5x10^7 to induce GVHD into a mouse.
A test sample was suspended in 0.5% CMC solution (test sample 10mg vs the CMC solution 1ml), 2mg of the test sample / mouse / day was subcutaneously administered every day for 2 weeks beginning from injection of splenocytes to the above GVHD induced mice, and this group was compared with the GVHD induced group in which any test sample was not administered (no drug administered group) and the GVHD non-induced group (non-treated group).
The body weight of mice (g) was measured every week a week later after the first injection of splenocytes, for 6 weeks, and the total IgE amount (ng/ml) was measured every week a week later after the first injection of splenocytes, for 9 weeks, and the degree of GVHD was evaluated by change of day.

For series [3], the system named is GVHD induced mouse. Put plainly: Prevention of the mortality of GVHD induced mouse. Type of series: in vivo, CBF1 mouse. To be noted: splenocytes 1x10^8; after the death of all mice of the drug non-administered group; 3 weeks observation. The procedure: GVHD was introduced into CBF1 mouse in the same manner as in Test example 2, except for the numbers of the injected splenocytes, 1x10^8, and the test sample administered group was compared with the drug non-administered group and the non-treated group.
The effect of test samples was evaluated by the mortality of mouse for 3 weeks after the first introduction of the splenocytes.

Series [4] in a line: Toxicity after oral administration (mortality). To be noted: 3,000mg/kg:body weight, orally administered. Type of series: in vivo. Here is the method: And a compound of the generic formula (I) or its pharmaceutically acceptable salt was low in toxicity. For example, when compound 4a ( 3,000mg/kg:body weight) was orally administered, the mortality was not found. Therefore, a compound of the generic formula (I) or its pharmaceutically acceptable salt is useful for preventing and treating the diseases in which apoptosis caused by binding the solubilized Fas L with Fas is considered to participate, for example, fulminant hepatitis, GVHD, AIDS, autoimmune diseases, etc.

Consider `CNC(=O)[C@H](Cc1ccc(OC)cc1)NC(=O)[C@H](CC(C)C)[C@H](C)C(=O)NO` [Test sample C, [4-(N-hydroxyamino)-2(R)-isobutyl-3(S)-methylsuccinyl]-L-O-methyltyrosine-N-methylamide], for which, in series [1], the IC50 amounted to 1.5 µM and the inhibition at 5 µM is above 70%.
For the compound `CNC(=O)[C@@H](NC(=O)[C@H](CC(C)C)[C@H](C)C(=O)NO)c1ccccc1` [Test sample E, [4-(N-hydroxyamino)-2(R)-isobutyl-3(S)-methylsuccinyl]-L-phenylglycine-N-methylamide], the inhibition at 5 µM in series [1] amounted to 29%. For the same compound, the “decrease of body weight caused by the induced GVHD” value in series [2] (body weight measured weekly for 6 weeks) is reported as “clearly prohibited”. The “increase of total IgE amount caused by the induced GVHD” value in series [2] (total IgE measured weekly for 9 weeks) is “clearly prohibited”. Moreover, the survival rate in series [3] is reported as 90%. Moreover, the mortality entry in series [4] is on record as “not found”.
On to `CNC(=O)[C@H](Cc1ccc(OC)cc1)NC(=O)[C@@H](CC(=O)NO)CC(C)C` [Test sample A, [4-(N-hydroxyamino)-2(R)-isobutylsuccinyl]-L-O-methyltyrosine-N-methylamide], for which, in series [1], the inhibition at 5 µM was 47%.
Turning to `CNC(=O)[C@H](Cc1cccc2c1CCCC2)NC(=O)[C@H](CC(C)C)C(C)C(=O)NO` (stereo partly drawn) [Test sample H, [4-(N-hydroxyamino)-2(R)-isobutyl-3-methylsuccinyl]-L-3-(5,6,7,8-tetrahydro-1-naphthyl)alanine-N-methylamide], in series [1], the inhibition at 5 µM is 57%.
As for `NS(=O)(=O)c1ccc(CCNC(=O)[C@H](CC2CCCCC2)NC(=O)[C@H](CCCc2ccccc2)CC(=O)NO)cc1` [Test sample G, [4-(N-hydroxyamino)-2(R)-(3-phenylpropyl)succinyl]-L-3-cyclohexylalanine-N-[2-(4-sulfonylamidophenyl)ethyl]amide], in series [1], half-maximal inhibition (IC50) was put at 1.1 µM and the inhibition at 5 µM was above 70%.
Regarding `CNC(=O)[C@H](Cc1ccccc1)NC(=O)[C@H](CC(C)C)[C@H](CSc1ccccc1)C(=O)NO` [Test sample B, [4-(N-hydroxyamino)-2(R)-isobutyl-3(S)-phenylthiomethylsuccinyl]-L-phenylalanine-N-methylamide], in series [1], the midpoint of inhibition, the IC50, lay at 2.2 µM and the inhibition at 5 µM was above 70%.
Regarding `CNC(=O)[C@H](Cc1cccc2ccccc12)NC(=O)[C@H](CC(C)C)C(C)C(=O)NO` (stereo partly drawn) [Test sample I, [4-(N-hydroxyamino)-2(R)-isobutyl-3-methylsuccinyl]-L-3-(1-naphthyl)alanine-N-methylamide], the inhibition at 5 µM in series [1] was 50%.
Consider `CNC(=O)[C@H](Cc1ccccc1)NC(=O)[C@H](CC(C)C)[C@H](CSc1cccs1)C(=O)NO` [Test sample D, [4-(N-hydroxyamino)-2(R)-isobutyl-3(S)-(2-thienylthiomethyl)succinyl]-L-phenylalanine-N-methylamide], for which, in series [1], the IC50 was 1.6 µM and the inhibition at 5 µM is above 70%.
In the case of `CNC(=O)[C@@H](NC(=O)[C@@H](CC(=O)NO)CC(C)C)c1ccc2ccccc2c1` [Test sample F, [4-(N-hydroxyamino)-2(R)-isobutylsuccinyl]-L-2-naphthylglycine-N-methylamide], in series [1], the inhibition at 5 µM was 35%.
